This assay deals with Bmi-1 protein. Kind of assay: Sandwich ELISA Assay: Bmi-1 protein level in HT-1080 cells treated with test compounds. In kind it is cell-based. Put shortly:
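HT-1080 cells exposed to compounds (final DMSO 0.5%) for 40-48 h at 37° C, 5% CO2, then lysed. Bmi-1 quantified by sandwich ELISA (mouse anti-Bmi-1 capture, rabbit anti-Bmi-1 detection, HRP anti-rabbit, TMB), read at OD450 with OD570 reference, against recombinant GST-Bmi-1 standard curve (0-8000 pg/mL).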
(In an ELISA, binding on a coated surface is turned into a signal by an enzyme label.)
What is called EC50 is the concentration at which the effect is half-maximal. The low end stands for a more potent agent, the high end for a less potent agent. Take `Cc1ccc(Nc2nc(N)nc(-n3c(C)nc4ccccc43)n2)cc1` [Cpd 148, 6-(2-methyl-1H-benzimidazol-1-yl)-N-(4-methylphenyl)-1,3,5-triazine-2,4-diamine]: the EC50 lay within 1 to 10 nM.
With `COc1ccc(Nc2nc(N)nc(-n3c(C)nc4ccc(F)cc43)n2)cc1` [Cpd 164, 6-(6-fluoro-2-methyl-1H-benzimidazol-1-yl)-N-(4-methoxyphenyl)-1,3,5-triazine-2,4-diamine] the figure was 1 to 10 nM.
In the case of `Cc1nc2ccc(F)cc2n1-c1nc(N)nc(Nc2ccc(Cl)c(F)c2)n1` [Cpd 201, N-(4-chloro-3-fluorophenyl)-6-(6-fluoro-2-methyl-1H-benzimidazol-1-yl)-1,3,5-triazine-2,4-diamine], the EC50 fell in the range of 100 to 3000 nM.
With `Cc1nc2c(F)cccc2n1-c1nc(N)nc(Nc2ccc(OC(F)F)c(F)c2)n1` [Cpd 97, N-[4-(difluoromethoxy)-3-fluorophenyl]-6-(4-fluoro-2-methyl-1H-benzimidazol-1-yl)-1,3,5-triazine-2,4-diamine] the figure was 100 to 3000 nM.
Next, `N#Cc1ccc(Nc2nc(N)nc(-n3c(C4CC4)nc4ccccc43)n2)cc1` [Cpd 158, 4-{[4-amino-6-(2-cyclopropyl-1H-benzimidazol-1-yl)-1,3,5-triazin-2-yl]amino}benzonitrile]: 100 to 3000 nM; `Fc1ccc2nc(C3CC3)n(-c3cnnc(Nc4ccc(C(F)(F)F)cc4)n3)c2c1` [Cpd 134, 5-(2-cyclopropyl-6-fluoro-1H-benzimidazol-1-yl)-N-[4-(trifluoromethyl)phenyl]-1,2,4-triazin-3-amine]: 100 to 3000 nM; `Cc1nc2ccccc2n1-c1nc(N)nc(Nc2ccc3ncccc3c2)n1` [Cpd 14, 6-(2-methyl-1H-benzimidazol-1-yl)-N-(quinolin-6-yl)-1,3,5-triazine-2,4-diamine]: 1 to 10 nM.
Next, `Cc1nc2ccccc2n1-c1nc(NO)nc(Nc2ccc3ncccc3c2)n1` [Cpd 16, N-hydroxy-6-(2-methyl-1H-benzimidazol-1-yl)-N′-(quinolin-6-yl)-1,3,5-triazine-2,4-diamine]: 10 to 100 nM.
In turn, `CCc1nn2ccccc2c1-c1nc(N)nc(Nc2ccc(C(F)(F)F)cc2)n1` [Cpd 128, 6-(2-ethylpyrazolo[1,5-a]pyridin-3-yl)-N-[4-(trifluoromethyl)phenyl]-1,3,5-triazine-2,4-diamine] gave a 50% effective concentration (EC50) of 100 to 3000 nM.
Next, `Cc1nc2ncc(Br)cc2n1-c1nc(NCCO)nc(Nc2ccc(C(F)(F)F)cc2)n1` [Cpd 34, 2-{[4-(6-bromo-2-methyl-1H-imidazo[4,5-b]pyridin-1-yl)-6-{[4-(trifluoromethyl)phenyl]amino}-1,3,5-triazin-2-yl]amino}ethanol]: 100 to 3000 nM; `Cc1nc2c(F)cc(F)cc2n1-c1nc(N)nc(Nc2ccc(Cl)c(F)c2)n1` [Cpd 199, N-(4-chloro-3-fluorophenyl)-6-(4,6-difluoro-2-methyl-1H-benzimidazol-1-yl)-1,3,5-triazine-2,4-diamine]: 100 to 3000 nM.
Take `CCc1nc2c(F)cc(F)cc2n1-c1nc(N)nc(Nc2ccc(OC(F)F)c(F)c2)n1` [Cpd 50, N-[4-(difluoromethoxy)-3-fluorophenyl]-6-(2-ethyl-4,6-difluoro-1H-benzimidazol-1-yl)-1,3,5-triazine-2,4-diamine]: the EC50 lay in the range of 10 to 100 nM.
Next, `Nc1nc(Nc2ccc(OC(F)F)c(F)c2)nc(-n2c(C3CC3)nc3ccc(F)cc32)n1` [Cpd 64, 6-(2-cyclopropyl-6-fluoro-1H-benzimidazol-1-yl)-N-[4-(difluoromethoxy)-3-fluorophenyl]-1,3,5-triazine-2,4-diamine]: 10 to 100 nM; `N#CCc1nc2ccccc2n1-c1nc(N)nc(Nc2ccc(OC(F)F)c(F)c2)n1` [Cpd 122, [1-(4-amino-6-{[4-(difluoromethoxy)-3-fluorophenyl]amino}-1,3,5-triazin-2-yl)-1H-benzimidazol-2-yl]acetonitrile]: 100 to 3000 nM; `Cc1nc2ccccc2n1-c1nc(N)nc(Nc2ccc(Br)cc2)n1` [Cpd 206, N-(4-bromophenyl)-6-(2-methyl-1H-benzimidazol-1-yl)-1,3,5-triazine-2,4-diamine]: 1 to 10 nM.
For `Cc1nc2ccccc2n1-c1nc(N)nc(Nc2ccc(C#N)cc2)n1` [Cpd 151, 4-{[4-amino-6-(2-methyl-1H-benzimidazol-1-yl)-1,3,5-triazin-2-yl]amino}benzonitrile], the EC50 lay within 100 to 3000 nM.
As for `CCc1nc2ccccc2n1-c1cnnc(Nc2ccc(C)cc2)n1` [Cpd 218, 5-(2-ethyl-1H-benzimidazol-1-yl)-N-(4-methylphenyl)-1,2,4-triazin-3-amine], the EC50 lay in the range of 1 to 10 nM.
Next, `Cc1nc2c(F)cccc2n1-c1nc(N)nc(Nc2ccc(Br)cc2)n1` [Cpd 219, N-(4-bromophenyl)-6-(4-fluoro-2-methyl-1H-benzimidazol-1-yl)-1,3,5-triazine-2,4-diamine]: 10 to 100 nM.
For `Cc1nc2c(F)cccc2n1-c1nc(N)nc(Nc2ccc(OC(F)F)cc2)n1` [Cpd 96, N-[4-(difluoromethoxy)phenyl]-6-(4-fluoro-2-methyl-1H-benzimidazol-1-yl)-1,3,5-triazine-2,4-diamine], the EC50 was in the range of 10 to 100 nM.
Next, `CCc1nc2ccccc2n1-c1nc(N)nc(Nc2ccc(C)cc2)n1` [Cpd 160, 6-(2-ethyl-1H-benzimidazol-1-yl)-N-(4-methylphenyl)-1,3,5-triazine-2,4-diamine]: 1 to 10 nM; `Cc1nc2ncccc2n1-c1nc(N)nc(Nc2ccc(OC(F)F)cc2)n1` [Cpd 23, N-[4-(difluoromethoxy)phenyl]-6-(2-methyl-1H-imidazo[4,5-b]pyridin-1-yl)-1,3,5-triazine-2,4-diamine]: 100 to 3000 nM; `Nc1nc(Nc2ccc(OC(F)F)cc2)nc(-n2c(CO)nc3ccccc32)n1` [Cpd 120, [1-(4-amino-6-{[4-(difluoromethoxy)phenyl]amino}-1,3,5-triazin-2-yl)-1H-benzimidazol-2-yl]methanol]: 100 to 3000 nM.
Consider `Nc1nc(Nc2ccc(Cl)cc2)nc(-n2c(C3CC3)nc3ccc(F)cc32)n1` [Cpd 178, N-(4-chlorophenyl)-6-(2-cyclopropyl-6-fluoro-1H-benzimidazol-1-yl)-1,3,5-triazine-2,4-diamine], for which the EC50 lay in the range of 10 to 100 nM.
With `CCc1nc2cc(F)ccc2n1-c1nc(N)nc(Nc2ccc(C)cc2)n1` [Cpd 174, 6-(2-ethyl-5-fluoro-1H-benzimidazol-1-yl)-N-(4-methylphenyl)-1,3,5-triazine-2,4-diamine] the figure was 10 to 100 nM; with `Cc1nc2ccccc2n1-c1nc(N)nc(Nc2ccc(C(F)(F)F)c(F)c2)n1` [Cpd 5, N-[3-fluoro-4-(trifluoromethyl)phenyl]-6-(2-methyl-1H-benzimidazol-1-yl)-1,3,5-triazine-2,4-diamine], 100 to 3000 nM.
Next, `Cc1nn2ccccc2c1-c1nc(N)nc(Nc2ccc(OC(F)F)cc2)n1` [Cpd 123, N-[4-(difluoromethoxy)phenyl]-6-(2-methylpyrazolo[1,5-a]pyridin-3-yl)-1,3,5-triazine-2,4-diamine]: 100 to 3000 nM.
With `FC(F)(F)c1ccc(Nc2nncc(-n3c(C4CC4)nc4ccccc43)n2)cc1` [Cpd 133, 5-(2-cyclopropyl-1H-benzimidazol-1-yl)-N-[4-(trifluoromethyl)phenyl]-1,2,4-triazin-3-amine] the figure was 10 to 100 nM; with `Cc1nc2ccccc2n1-c1nncc(Nc2ccc(OC(F)F)cc2)n1` [Cpd 99, N-[4-(difluoromethoxy)phenyl]-3-(2-methyl-1H-benzimidazol-1-yl)-1,2,4-triazin-5-amine], 10 to 100 nM; with `Cc1nc2ccccc2n1-c1nc(N)nc(Nc2ccc3occc3c2)n1` [Cpd 8, N-(1-benzofuran-5-yl)-6-(2-methyl-1H-benzimidazol-1-yl)-1,3,5-triazine-2,4-diamine], 10 to 100 nM.
As for `Cc1nc2c(F)cc(F)cc2n1-c1nc(N)nc(Nc2ccc(OC(F)F)c(F)c2)n1` [Cpd 48, N-[4-(difluoromethoxy)-3-fluorophenyl]-6-(4,6-difluoro-2-methyl-1H-benzimidazol-1-yl)-1,3,5-triazine-2,4-diamine], the concentration giving a half-maximal response (EC50) fell in the range of 10 to 100 nM.
Take `Cc1nc2ccc(F)cc2n1-c1nc(N)nc(Nc2ccc(Cl)cc2)n1` [Cpd 166, N-(4-chlorophenyl)-6-(6-fluoro-2-methyl-1H-benzimidazol-1-yl)-1,3,5-triazine-2,4-diamine]: the EC50 fell in the range of 10 to 100 nM.
Next, `Cc1nc2cc(F)c(F)cc2n1-c1nc(N)nc(Nc2ccc(C(F)(F)F)cc2)n1` [Cpd 9, 6-(5,6-difluoro-2-methyl-1H-benzimidazol-1-yl)-N-[4-(trifluoromethyl)phenyl]-1,3,5-triazine-2,4-diamine]: 100 to 3000 nM; `Nc1nc(Nc2ccc(OC(F)F)c(F)c2)nc(-n2c(C3CC3)nc3cc(F)ccc32)n1` [Cpd 67, 6-(2-cyclopropyl-5-fluoro-1H-benzimidazol-1-yl)-N-[4-(difluoromethoxy)-3-fluorophenyl]-1,3,5-triazine-2,4-diamine]: 100 to 3000 nM.
Regarding `CSc1nc2ccccc2n1-c1nc(N)nc(Nc2ccc(OC(F)F)cc2)n1` [Cpd 121, N-[4-(difluoromethoxy)phenyl]-6-[2-(methylsulfanyl)-1H-benzimidazol-1-yl]-1,3,5-triazine-2,4-diamine], the EC50 is 100 to 3000 nM.
For `Cc1nc2ccc(F)cc2n1-c1nc(N)nc(Nc2ccc(C(F)(F)F)cc2)n1` [Cpd 26, 6-(6-fluoro-2-methyl-1H-benzimidazol-1-yl)-N-[4-(trifluoromethyl)phenyl]-1,3,5-triazine-2,4-diamine], the 50% effective concentration (EC50) is 10 to 100 nM.
Compound `Nc1nc(Nc2ccc(C(F)(F)F)cc2)nc(-c2c(C(F)(F)F)nc3ccc(F)cn23)n1` [Cpd 25, 6-[6-fluoro-2-(trifluoromethyl)imidazo[1,2-a]pyridin-3-yl]-N-[4-(trifluoromethyl)phenyl]-1,3,5-triazine-2,4-diamine] returned an EC50 of 10 to 100 nM.
Turning to `[O-][n+]1cc(Nc2ccc(C(F)(F)F)cc2)nc(-n2c(C3CC3)nc3ccccc32)n1` [Cpd 141, 3-(2-cyclopropyl-1H-benzimidazol-1-yl)-N-[4-(trifluoromethyl)phenyl]-1,2,4-triazin-5-amine 1-oxide], the EC50 lay within 10 to 100 nM.

The record behind these values is patent US9975878B2, “Substituted triazine BMI-1 inhibitors” (PTC Therapeutics, Inc., priority 2013, dated 2018).
